ChEMBL document CHEMBL1201862, “PubChem BioAssay data set” (2004)
Active and inactive are the calls of the source.

Experiments:
[1] = target: T1, Beta-2 adrenergic receptor (Homo sapiens, UniProt P07550); assay: Dose response for HTS for Beta-2AR agonists via FAP method from Powderset1.; type: functional
[2] = target: T1, Beta-2 adrenergic receptor; assay: beta2AR agonists driving receptor internalization, dose response, cell-based, FAP fluorogen, flow cytometry, cherry pick 1 (AID 588763); type: functional
[3] = Cytotoxicity Dose Response with AM2.2-beta2AR cells for PowderSet01.; type: functional, cell-based; settings: read-out: EC50_MICROM
[4] = target: Induced myeloid leukemia cell differentiation protein Mcl-1 (Homo sapiens, UniProt Q07820); type: functional
[5] = target: T2, Estrogen receptor beta (Homo sapiens, UniProt Q92731); assay: ERβ–SRC-3 coactivator interaction inhibitors, confirmation, orthogonal assay, biochemical, ELISA, streptavidin-HRP readout (AID 1060)
[6] = target: T3, Sentrin-specific protease 8 (Homo sapiens, UniProt Q96LD8); type: functional;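 note: kinetic enzyme assay of SENP8 cleaving a Nedd8 protein substrate, dose-response confirmation of screening hits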
T3 sequence (Q96LD8 whole entry): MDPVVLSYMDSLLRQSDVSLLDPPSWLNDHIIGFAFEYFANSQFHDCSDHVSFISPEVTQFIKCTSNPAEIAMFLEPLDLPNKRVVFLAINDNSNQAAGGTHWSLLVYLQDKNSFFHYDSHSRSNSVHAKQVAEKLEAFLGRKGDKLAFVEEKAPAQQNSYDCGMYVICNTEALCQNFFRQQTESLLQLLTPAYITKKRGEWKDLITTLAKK

[7] = target: T4, Estrogen receptor (Homo sapiens, UniProt P03372);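 note: potency for inhibiting coactivator peptide recruitment to the receptor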
T4 sequence (P03372 whole entry): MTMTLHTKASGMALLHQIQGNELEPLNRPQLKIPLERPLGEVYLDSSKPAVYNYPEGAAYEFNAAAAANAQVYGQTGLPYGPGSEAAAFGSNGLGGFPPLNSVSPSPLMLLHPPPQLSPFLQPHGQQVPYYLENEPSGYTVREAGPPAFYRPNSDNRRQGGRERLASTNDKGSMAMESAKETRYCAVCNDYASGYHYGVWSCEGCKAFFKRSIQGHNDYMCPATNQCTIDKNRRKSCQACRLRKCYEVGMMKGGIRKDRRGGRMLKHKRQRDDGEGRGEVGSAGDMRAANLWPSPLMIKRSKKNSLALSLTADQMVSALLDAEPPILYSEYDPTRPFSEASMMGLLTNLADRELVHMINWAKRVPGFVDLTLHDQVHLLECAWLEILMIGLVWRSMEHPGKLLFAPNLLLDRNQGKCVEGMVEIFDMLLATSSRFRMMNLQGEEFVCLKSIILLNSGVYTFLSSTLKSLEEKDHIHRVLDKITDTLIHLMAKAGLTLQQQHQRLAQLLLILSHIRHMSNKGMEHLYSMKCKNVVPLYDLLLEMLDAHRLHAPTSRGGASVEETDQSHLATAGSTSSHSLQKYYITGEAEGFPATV

[8] = target: T2, Estrogen receptor beta
[9] = target: Transitional endoplasmic reticulum ATPase (Homo sapiens, UniProt P55072); assay: p97 ATPase inhibitors, dose response, biochemical (AID 1534)
[10] = Luminescence Cell-Based Dose Retest to Confirm Inhibitors of Cancer Stem Cells. [Related pubchem assays (depositor defined):AID2717, AID2721]; type: functional; settings: Homo sapiens
[11] = target: Transitional endoplasmic reticulum ATPase (Homo sapiens, UniProt P55072, C522A); assay: C522A mutant p97 ATPase inhibitors, dose response, counter-screen for p97 inhibitor project, biochemical, luminescence (AID 1544)
[12] = target: T5, Sentrin-specific protease 1 (Homo sapiens, UniProt Q9P0U3); assay: potency of human SENP1 inhibitors, dose response, biochemical, kinetic FRET (AID 651697); type: functional; settings: read-out: IC50_Mean
[13] = target: T5, Sentrin-specific protease 1; assay: Dose response confirmation of small molecule inhibitors of the catalytic domain of the SUMO protease, SENP1 in a FRET assay.; type: functional; settings: read-out: IC50_Mean
[14] = target: T6, Corticotropin-releasing factor receptor 2/Corticotropin-releasing factor-binding protein (Homo sapiens, UniProt P24387+Q13324); assay: Dose Response confirmation of uHTS hits for small molecule antagonists of the CRF-binding protein and CRF-R2 receptor complex.; type: functional; settings: read-out: IC50_Mean
T6 sequence (Q13324 whole entry): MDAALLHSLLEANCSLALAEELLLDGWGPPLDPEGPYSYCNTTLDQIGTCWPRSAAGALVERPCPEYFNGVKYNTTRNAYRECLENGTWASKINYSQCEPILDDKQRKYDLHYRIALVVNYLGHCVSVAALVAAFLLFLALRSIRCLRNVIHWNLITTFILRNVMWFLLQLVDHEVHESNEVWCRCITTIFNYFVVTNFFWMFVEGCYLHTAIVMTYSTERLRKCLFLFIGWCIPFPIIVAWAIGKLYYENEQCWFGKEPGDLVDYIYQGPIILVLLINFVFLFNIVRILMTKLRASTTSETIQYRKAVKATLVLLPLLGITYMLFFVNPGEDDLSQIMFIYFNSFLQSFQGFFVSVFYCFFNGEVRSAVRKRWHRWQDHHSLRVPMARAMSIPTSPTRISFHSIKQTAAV
T6 sequence (P24387 whole entry): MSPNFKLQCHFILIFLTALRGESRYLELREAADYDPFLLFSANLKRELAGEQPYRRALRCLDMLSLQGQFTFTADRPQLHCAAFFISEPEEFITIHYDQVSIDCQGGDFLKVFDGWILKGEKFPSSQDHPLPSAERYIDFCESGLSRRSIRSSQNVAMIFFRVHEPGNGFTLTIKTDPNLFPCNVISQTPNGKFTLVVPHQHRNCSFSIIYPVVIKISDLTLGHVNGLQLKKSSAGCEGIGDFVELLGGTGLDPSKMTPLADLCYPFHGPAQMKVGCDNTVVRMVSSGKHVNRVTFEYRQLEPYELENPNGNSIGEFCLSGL

[15] = target: T6, Corticotropin-releasing factor receptor 2/Corticotropin-releasing factor-binding protein; assay: activators of CRF receptor 2 with binding protein – uHTS hits, confirmation (AID 602473); type: functional; settings: read-out: EC50_Mean
[16] = CRF-BP/CRF-R2 complex antagonists, dose response, cell-based, uHTS hits, 384-well (AID 651639); type: functional, Homo sapiens; settings: read-out: IC50_Mean
[17] = target: T7, Streptokinase A (Streptococcus pyogenes serotype M1, UniProt P10520); assay: S. pyogenes streptokinase expression inhibitors, potency, dose response, plasminogen activation absorbance, OD405 (AID 1914); type: functional, Streptococcus pyogenes M1 GAS;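 note: secreted streptokinase activity via plasminogen activation per viability signal from cell pellet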
T7 sequence (P10520 whole entry): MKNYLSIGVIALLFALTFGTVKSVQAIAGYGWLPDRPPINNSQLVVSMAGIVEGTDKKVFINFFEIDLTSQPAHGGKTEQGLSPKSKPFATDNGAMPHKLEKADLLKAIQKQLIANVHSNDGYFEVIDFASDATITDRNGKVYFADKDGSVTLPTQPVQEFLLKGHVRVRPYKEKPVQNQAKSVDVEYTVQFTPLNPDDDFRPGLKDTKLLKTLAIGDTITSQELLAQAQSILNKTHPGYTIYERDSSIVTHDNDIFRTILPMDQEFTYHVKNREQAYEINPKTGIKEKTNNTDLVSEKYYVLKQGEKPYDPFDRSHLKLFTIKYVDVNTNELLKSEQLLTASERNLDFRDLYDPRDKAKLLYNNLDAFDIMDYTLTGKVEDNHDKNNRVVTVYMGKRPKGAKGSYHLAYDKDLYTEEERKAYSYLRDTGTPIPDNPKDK

[18] = target: T8, Cytochrome P450 1A2 (Homo sapiens, UniProt P05177);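 note: PubChem cytochrome P450 panel assay, CYP1A2 panel member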
T8 sequence (P05177 whole entry): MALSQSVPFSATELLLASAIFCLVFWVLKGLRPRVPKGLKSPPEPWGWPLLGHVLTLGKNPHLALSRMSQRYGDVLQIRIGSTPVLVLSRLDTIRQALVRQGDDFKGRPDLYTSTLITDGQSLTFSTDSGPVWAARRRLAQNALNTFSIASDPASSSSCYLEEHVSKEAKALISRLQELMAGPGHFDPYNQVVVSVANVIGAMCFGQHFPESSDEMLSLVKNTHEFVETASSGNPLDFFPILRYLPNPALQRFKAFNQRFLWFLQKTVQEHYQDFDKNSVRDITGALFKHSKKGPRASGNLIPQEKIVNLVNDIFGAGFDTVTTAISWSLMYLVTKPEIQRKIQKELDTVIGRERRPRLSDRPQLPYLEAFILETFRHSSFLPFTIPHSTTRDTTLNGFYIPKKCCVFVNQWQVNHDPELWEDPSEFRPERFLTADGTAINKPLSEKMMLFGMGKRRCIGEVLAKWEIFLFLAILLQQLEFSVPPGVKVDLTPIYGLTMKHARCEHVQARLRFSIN

[19] = target: Potassium voltage-gated channel subfamily KQT member 2 (Rattus norvegicus, UniProt O88943); assay: KCNQ2 potassium channel inhibitors, dose response, cell-based, automated electrophysiology, set II, rat KCNQ2 (AID 588637); type: functional
[20] = target: Cytochrome P450 2C9 (Homo sapiens, UniProt P11712)
[21] = tested on: Streptococcus; assay: Group A Streptococcus viability loss, dose response, counter-screen for streptokinase expression inhibitor project, luminescence, BacTiterGlo (AID 1915); type: functional, organism-based;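 note: potency for reduction of bacterial viability or growth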
[22] = tested on: Streptococcus sp. 'group A'; assay: growth inhibition of control SK(-) GAS strain, dose response, counter-screen for streptokinase expression inhibitor project, luminescence, kanamycin, BacTiterGlo, confirmation (AID 1900); type: functional, organism-based
[23] = target: Cytochrome P450 2C19 (Homo sapiens, UniProt P33261); assay: Cytochrome panel assay with activity outcomes. Panel member name: p450-cyp2c19 Compounds with AC50 equal or less than 10 uM are considered active; type: functional; settings: read-out: AC50
[24] = target: T9, Methionyl-tRNA synthetase, putative (Trypanosoma brucei brucei, UniProt Q38C91); type: functional, Trypanosoma brucei brucei strain 927/4 GUTat10.1
[25] = Counterscreen for inhibitors of Trypanosoma brucei methionyl tRNA synthetase (MetRS): Luminescence-based cell-based high throughput dose response assay to identify compounds that are cytotoxic to Jurkat human T lymphocyte cells.; type: functional
[26] = target: Long-chain-fatty-acid--AMP ligase FadD28 (Mycobacterium tuberculosis, UniProt P9WQ59); assay: Fluorescence polarization aasay to screen for inhibitors that compete for the binding of FadD28 to a bisubstrate Measured in Biochemical System Using Plate Reader - 2147-01_Inhibitor_Dose_CherryPick_Activity.; type: functional, Mycobacterium tuberculosis H37Rv
[27] = target: T9, Methionyl-tRNA synthetase, putative; type: functional, Trypanosoma brucei brucei strain 927/4 GUTat10.1; remark: listed apart in the source
[28] = target: Beta-lactamase (Salmonella choleraesuis (strain SC-B67), UniProt Q5J463); assay: Epi-absorbance-based counterscreen for selective VIM-2 inhibitors: dose response biochemical high throughput screening assay to identify inhibitors of TEM-1 serine-beta-lactamase.
[29] = target: T10, Beta-lactamase (Pseudomonas aeruginosa, UniProt Q79MP6); assay: IMP-1 metallo-beta-lactamase inhibitors, dose response, selectivity assay for VIM-2 inhibitor project, biochemical, epi-absorbance (AID 1920)
[30] = target: T10, Beta-lactamase; assay: […] counterscreen for selective VIM-2 inhibitors: dose response biochemical high throughput screening assay to identify inhibitors of IMP-1 metallo-beta-lactamase.
[31] = target: ADP-ribosylation factor GTPase-activating protein 1 (Rattus norvegicus, UniProt Q62848); assay: Fluorescence polarization-based biochemical high throughput dose response screening assay to identify inhibitors of ADP-ribosylation factor GTPase activating protein 1 (ARFGAP1).; type: functional
[32] = tested on: Vero; assay: Vero cell toxicity, dose response, cytotoxicity control, plate reader, cherry-pick samples (AID 687020); type: functional, cell-based; settings: Chlorocebus sabaeus
[33] = tested on: INS1; assay: beta cell apoptosis inhibitors, cytokine rescue, dose response, luminescence, retest (AID 449756); type: functional, cell-based; settings: Rattus norvegicus;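 note: cell death triggered by IL-1 beta plus TNF-alpha plus IFN-gamma mixture; protective hits raise ATP signal compared with cytokine alone wells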
[34] = target: Protein Wnt-3a (Mus musculus, UniProt P27467); assay: Wnt3a-driven reporter signaling inhibition, dose response, selectivity assay for Gli-SUFU antagonist project, Wnt-LIGHT cells, luminescence (AID 651570); type: functional; settings: read-out: IC50_Mean;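 note: Wnt-LIGHT reporter cells stimulated with conditioned medium from Wnt3a-producing cells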
[35] = target: Cytochrome P450 2D6 (Homo sapiens, UniProt P10635);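 note: CYP2D6 member of a cytochrome P450 panel assay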

T5 sequence (Q9P0U3 whole entry, the tested form may be a part): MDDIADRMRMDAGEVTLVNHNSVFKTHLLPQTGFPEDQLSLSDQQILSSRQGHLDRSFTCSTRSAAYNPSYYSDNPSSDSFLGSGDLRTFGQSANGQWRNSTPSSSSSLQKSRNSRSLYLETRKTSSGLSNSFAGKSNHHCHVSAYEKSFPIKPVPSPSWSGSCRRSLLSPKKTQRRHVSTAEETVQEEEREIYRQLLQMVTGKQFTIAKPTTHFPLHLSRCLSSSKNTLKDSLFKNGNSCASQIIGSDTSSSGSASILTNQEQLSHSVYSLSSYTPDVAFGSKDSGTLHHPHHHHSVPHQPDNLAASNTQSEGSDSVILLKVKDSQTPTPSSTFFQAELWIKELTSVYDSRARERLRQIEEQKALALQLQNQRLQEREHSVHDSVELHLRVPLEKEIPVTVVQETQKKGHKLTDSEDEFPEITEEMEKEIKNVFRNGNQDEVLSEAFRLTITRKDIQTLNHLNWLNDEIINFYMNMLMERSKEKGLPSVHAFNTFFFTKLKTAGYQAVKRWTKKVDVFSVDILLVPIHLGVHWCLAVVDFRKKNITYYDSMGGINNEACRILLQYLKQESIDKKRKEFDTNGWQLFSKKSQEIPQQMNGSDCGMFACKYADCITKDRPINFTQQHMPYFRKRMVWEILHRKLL
T1 sequence (P07550 whole entry): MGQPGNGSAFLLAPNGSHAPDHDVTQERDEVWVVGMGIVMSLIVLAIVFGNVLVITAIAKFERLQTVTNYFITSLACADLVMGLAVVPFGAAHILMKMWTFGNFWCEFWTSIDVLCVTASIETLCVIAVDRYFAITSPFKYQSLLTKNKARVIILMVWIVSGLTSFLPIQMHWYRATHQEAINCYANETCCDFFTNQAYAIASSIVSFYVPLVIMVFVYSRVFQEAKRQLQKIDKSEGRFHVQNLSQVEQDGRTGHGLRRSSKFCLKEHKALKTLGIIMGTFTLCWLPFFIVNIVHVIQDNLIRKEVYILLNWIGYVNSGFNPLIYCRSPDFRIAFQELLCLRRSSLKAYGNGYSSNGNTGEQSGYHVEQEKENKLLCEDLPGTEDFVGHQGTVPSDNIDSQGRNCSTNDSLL
T9 sequence (Q38C91 whole entry): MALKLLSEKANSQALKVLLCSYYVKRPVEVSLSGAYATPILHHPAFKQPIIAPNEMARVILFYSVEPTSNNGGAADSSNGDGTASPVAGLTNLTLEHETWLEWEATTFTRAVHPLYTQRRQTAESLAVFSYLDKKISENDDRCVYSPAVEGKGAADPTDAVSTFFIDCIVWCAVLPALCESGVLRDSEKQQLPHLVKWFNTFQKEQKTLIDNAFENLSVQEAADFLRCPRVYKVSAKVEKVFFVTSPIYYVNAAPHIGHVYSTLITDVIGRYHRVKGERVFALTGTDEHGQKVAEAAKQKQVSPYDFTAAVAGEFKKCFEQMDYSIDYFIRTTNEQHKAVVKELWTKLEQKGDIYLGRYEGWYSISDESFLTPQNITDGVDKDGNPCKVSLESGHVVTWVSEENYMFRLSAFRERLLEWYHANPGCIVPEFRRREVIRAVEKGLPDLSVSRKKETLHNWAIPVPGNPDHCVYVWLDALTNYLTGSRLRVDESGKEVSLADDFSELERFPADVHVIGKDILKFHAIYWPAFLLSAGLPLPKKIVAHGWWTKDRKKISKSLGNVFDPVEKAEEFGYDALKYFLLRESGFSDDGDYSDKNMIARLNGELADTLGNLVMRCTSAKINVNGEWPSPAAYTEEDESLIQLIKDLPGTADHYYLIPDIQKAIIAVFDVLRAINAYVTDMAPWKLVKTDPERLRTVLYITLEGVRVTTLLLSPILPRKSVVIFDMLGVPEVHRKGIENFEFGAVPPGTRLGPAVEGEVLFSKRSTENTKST
T2 sequence (Q92731 whole entry): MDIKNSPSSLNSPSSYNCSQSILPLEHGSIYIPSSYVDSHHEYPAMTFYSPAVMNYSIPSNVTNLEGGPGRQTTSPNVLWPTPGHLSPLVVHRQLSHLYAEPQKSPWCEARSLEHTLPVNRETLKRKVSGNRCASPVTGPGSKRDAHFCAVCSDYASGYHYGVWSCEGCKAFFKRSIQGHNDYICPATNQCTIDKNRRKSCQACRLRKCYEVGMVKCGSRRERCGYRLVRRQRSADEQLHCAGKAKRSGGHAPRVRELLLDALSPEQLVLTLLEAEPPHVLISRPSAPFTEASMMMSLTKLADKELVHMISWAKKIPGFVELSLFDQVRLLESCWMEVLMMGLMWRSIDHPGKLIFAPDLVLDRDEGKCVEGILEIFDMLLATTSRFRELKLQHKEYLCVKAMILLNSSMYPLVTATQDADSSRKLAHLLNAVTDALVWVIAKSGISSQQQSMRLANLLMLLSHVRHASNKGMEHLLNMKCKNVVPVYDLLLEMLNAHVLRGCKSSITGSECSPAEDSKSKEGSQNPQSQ
T10 sequence (Q79MP6 whole entry): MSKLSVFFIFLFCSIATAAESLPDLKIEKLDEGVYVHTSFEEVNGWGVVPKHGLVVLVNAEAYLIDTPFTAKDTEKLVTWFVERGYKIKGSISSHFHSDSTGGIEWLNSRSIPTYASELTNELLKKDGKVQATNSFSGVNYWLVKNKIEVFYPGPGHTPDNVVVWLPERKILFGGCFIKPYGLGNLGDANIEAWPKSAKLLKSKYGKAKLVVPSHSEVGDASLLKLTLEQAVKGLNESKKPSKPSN
Chain of Protein Wnt-3a (P27467 whole entry): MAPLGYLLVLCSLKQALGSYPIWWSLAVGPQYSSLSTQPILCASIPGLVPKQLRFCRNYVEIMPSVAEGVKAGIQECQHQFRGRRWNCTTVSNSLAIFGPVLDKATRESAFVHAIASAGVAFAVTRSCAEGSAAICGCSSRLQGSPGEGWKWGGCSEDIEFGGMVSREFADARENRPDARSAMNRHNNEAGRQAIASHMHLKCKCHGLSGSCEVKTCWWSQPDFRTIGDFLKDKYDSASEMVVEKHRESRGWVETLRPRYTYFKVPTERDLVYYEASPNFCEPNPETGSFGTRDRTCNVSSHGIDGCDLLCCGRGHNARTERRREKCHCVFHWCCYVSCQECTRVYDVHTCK
Chain of Beta-lactamase (Salmonella choleraesuis (strain SC-B67), UniProt Q5J463) (Q5J463 whole entry): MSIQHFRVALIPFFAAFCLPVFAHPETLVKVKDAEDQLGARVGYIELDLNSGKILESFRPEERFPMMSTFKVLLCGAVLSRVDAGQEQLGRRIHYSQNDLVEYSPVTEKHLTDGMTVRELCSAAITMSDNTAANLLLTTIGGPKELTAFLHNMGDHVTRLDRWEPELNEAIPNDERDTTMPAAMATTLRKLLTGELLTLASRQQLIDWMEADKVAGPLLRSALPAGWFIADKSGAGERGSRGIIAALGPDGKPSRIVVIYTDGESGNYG
Chain of Potassium voltage-gated channel subfamily KQT member 2 (O88943 whole entry): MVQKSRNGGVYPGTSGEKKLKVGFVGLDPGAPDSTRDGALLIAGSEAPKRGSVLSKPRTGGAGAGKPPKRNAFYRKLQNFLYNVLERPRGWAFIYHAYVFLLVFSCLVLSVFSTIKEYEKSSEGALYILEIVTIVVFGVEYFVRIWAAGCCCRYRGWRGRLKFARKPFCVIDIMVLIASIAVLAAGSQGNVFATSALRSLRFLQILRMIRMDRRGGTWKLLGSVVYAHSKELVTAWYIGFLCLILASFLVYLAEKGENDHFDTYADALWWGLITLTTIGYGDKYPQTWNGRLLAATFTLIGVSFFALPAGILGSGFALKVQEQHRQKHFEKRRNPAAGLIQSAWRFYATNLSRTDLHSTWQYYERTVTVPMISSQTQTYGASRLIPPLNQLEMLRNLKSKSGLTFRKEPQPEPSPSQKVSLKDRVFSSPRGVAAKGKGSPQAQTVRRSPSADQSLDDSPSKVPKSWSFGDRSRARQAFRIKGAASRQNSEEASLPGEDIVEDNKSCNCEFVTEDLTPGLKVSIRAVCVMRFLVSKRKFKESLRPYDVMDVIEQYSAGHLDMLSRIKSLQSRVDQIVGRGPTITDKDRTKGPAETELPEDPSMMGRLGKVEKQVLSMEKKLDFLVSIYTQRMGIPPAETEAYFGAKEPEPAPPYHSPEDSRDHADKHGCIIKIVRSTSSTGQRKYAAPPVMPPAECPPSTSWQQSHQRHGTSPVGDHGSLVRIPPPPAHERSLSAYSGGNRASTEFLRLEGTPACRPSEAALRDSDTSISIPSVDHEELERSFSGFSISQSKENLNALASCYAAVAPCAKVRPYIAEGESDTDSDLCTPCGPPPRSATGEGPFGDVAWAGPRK
Chain of Cytochrome P450 2C19 (P33261 whole entry): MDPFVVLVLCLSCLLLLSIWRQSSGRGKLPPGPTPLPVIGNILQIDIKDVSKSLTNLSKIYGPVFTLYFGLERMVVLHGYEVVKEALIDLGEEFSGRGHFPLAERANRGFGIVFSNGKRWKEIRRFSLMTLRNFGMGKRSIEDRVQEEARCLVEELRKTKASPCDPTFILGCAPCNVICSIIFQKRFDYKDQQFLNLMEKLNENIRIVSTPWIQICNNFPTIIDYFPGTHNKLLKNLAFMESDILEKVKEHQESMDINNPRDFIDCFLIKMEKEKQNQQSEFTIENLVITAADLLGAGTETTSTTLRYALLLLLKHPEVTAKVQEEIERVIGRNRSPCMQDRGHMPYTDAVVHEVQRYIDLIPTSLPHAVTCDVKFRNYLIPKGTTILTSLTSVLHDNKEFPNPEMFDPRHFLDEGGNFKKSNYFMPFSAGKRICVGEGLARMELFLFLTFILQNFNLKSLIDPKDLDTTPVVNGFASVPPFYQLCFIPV
Chain of ADP-ribosylation factor GTPase-activating protein 1 (Q62848 whole entry): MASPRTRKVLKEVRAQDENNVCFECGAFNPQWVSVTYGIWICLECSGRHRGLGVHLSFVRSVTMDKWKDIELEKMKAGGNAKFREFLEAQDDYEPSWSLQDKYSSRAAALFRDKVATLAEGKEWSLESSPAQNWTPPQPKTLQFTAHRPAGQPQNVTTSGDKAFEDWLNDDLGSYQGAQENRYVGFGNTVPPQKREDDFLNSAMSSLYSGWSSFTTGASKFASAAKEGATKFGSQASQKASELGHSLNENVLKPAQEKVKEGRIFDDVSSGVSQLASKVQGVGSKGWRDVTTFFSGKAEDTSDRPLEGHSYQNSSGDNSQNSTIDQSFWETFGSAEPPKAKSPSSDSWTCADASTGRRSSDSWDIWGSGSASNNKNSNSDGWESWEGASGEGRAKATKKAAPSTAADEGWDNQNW

CCCCC(=O)Nc1ccc(S(=O)(=O)N2CCCCC2c2cccnc2)cc1 (stereo not given)
EC50 [1]: 32.2 nM (active) | EC50 [2]: 79.8 nM (active) | EC50 [3]: 23.3 µM (active)

CC1=C(SCCC#N)S/C(=C2\SC(C)=C(SCCC#N)S2)S1
IC50 [4]: 2.89 µM (active) | IC50 [5]: 129 nM (not active) | IC50 [6]: 299 nM (active) | IC50 [7]: 5.1 µM (active) | IC50 [8]: > 50 µM (not active)

Oc1ccc(Cl)cc1/C=C(\Cl)c1nc(O)c2ccc(Cl)cc2n1
IC50 [9]: > 50 µM (not active) | AC50 [10]: 1.32 µM (active) | IC50 [11]: > 50 µM (not active) | IC50 [12]: 654 nM (active) | IC50 [13]: 428 nM (active)

CCOC(=O)CSC1=C(C#N)C(c2ccc(Cl)cc2)C(C(=O)OC)C(=O)N1 (stereo not given)
IC50 [14]: 26.5 µM (active) | EC50 [15]: > 53 µM (inactive) | IC50 [16]: 9.62 µM (active)

O=C(CSc1nc2ccccc2c(=O)n1NC(=O)c1ccccc1)c1ccc(Cl)cc1
EC50 [17]: 106 µM (active) | AC50 [18]: 6.31 µM (inconclusive) | IC50 [19]: 1.53 µM (active) | AC50 [20]: 1 µM (inconclusive) | EC50 [21]: > 150 µM (not active) | EC50 [22]: 7.26 µM (active) | AC50 [23]: 2.24 µM (inconclusive)

O=C(NN1C(=O)/C(=C/c2nc3ccccc3[nH]2)SC1=S)c1ccc(Cl)cc1
IC50 [24]: 82.6 µM (inactive) | IC50 [25]: 83.3 µM (inactive) | AC50 [26]: 1.13 µM (active) | IC50 [27]: 119 µM (inactive)

Sc1nnc(-c2ccco2)n1-c1cccc2ccccc12
IC50 [28]: > 59.6 µM (inactive) | IC50 [29]: > 59.6 µM (inactive) | IC50 [30]: > 59.6 µM (inactive)

CCOC(=O)N1CCN(C(=O)CSc2nc(=O)n3cc(C)ccc3n2)CC1
IC50 [31]: 53.2 µM (inactive)

CN1C[C@@H]2[C@@H]3C(=O)N(Cc4ccccc4)C(=O)[C@@H]3[C@](C)(C1=O)N2C(=O)c1ccc(C(C)(C)C)cc1
AC50 [32]: 24.6 µM (active)

Cc1cc(/C=N/n2cnnc2)c(C)n1-c1ccc(OCc2ccccc2F)cc1
AC50 [33]: 3.41 µM (active) | IC50 [34]: 6.57 µM (active) | AC50 [35]: 17.8 µM (inconclusive)
